# From patent US20040175415A1, “Formulations and methods of delivery of intact tocopheryl succinate to humans” (priority 2003, published 2004)
# Like-named read-outs stand apart in the source and are kept apart here.
# Tests used:
# [1] = room temperature raised to 40° C., man; cited from earlier work
# [2] = DRI 2000, oral ingestion; cited from earlier work
# [3] = tested on: colon cancer cell xenografts; details: ip, 5 injections of 10 mg/day for 10 days; p < 0.01; cited from earlier work
# [4] = tested on: human breast cancer cells; details: cited from earlier work
# [5] = safety of TS treatment in the human subjects; assay type: in vivo; details: human subjects of this study
# Method: The hydrolyzed products of TS are tocopherol (vitamin E) and succinic acid, an endogenous metabolite produced during the oxidation of carbohydrates, amino acids and fat. The upper safety limit for vitamin E is set at 1000 mg or 1 gm by the most recent issue of DRI (Dietary Reference Intake) for vitamin C, vitamin E selenium and carotenoids. The DRI report was published in 2000 and one of the joint inventors of the present invention served on the committee from which the report was sponsored by the Institute of Medicine, US National Academy of Sciences (Chan et al. 2000). The upper dose limit claimed in the invention herein, is below or around the upper safety limit set at 1 gm by the Institute of Medicine for oral ingestion.
# [6] = the Merck index; cited from earlier work
# murine melanoma = details: ip, 15 injections at 3 mg/mouse, cited from earlier work
# [7] = tested on: several lines of cancer cells in culture; details: prior to the induction of apoptosis; cited from earlier work
# [8] = tested on: chemical-induced forestomach cancer; details: cited from earlier work
# colon cancer xenografts = details: ip, 4 injections at 5 mg once every 3 days; cited from earlier work
# [9] = tested on: esterase in the digestive juice; details: human (Howritt et al. 1984, Chessman et al. 1995); cited from earlier work
# [10] = tested on: human prostate cancer cells; details: cited from earlier work
# [11] = intragastric 16 times at 1.25 g/kg
# [12] = intragastric 16 times at 2.5 g/kg
compound,measurement,setting,value
O=C(O)c1ccccc1O [salicylate],increase in dermal crossing,[1],3 fold
"Cc1c(C)c2c(c(C)c1O)CC[C@@](C)(CCC[C@H](C)CCC[C@H](C)CCCC(C)C)O2 [vitamin E, RRR-alpha-tocopherol]",upper safety limit,[2],1000 mg
tocopheryl succinate [TS],tumor volume,[3],tumor volume reduced
same,angiogensis,[4]; ip injection,ip injection also reduce
same,expression of VEGF (vascular endothelial growth factor),[4]; ip injection,angiogensis via the suppressing
same,reduction in tumor weight,"[4]; ip, 7 injections at 3 mg/day",ip injection resulted in 63%
same,effect on tumor with sc injections,"[4]; sc, at 150 mg/kg per day",no effect with sc injections.
same,safety of treatment procedure,[5],no concern regarding the safety
same,solubility in vegetable oils,[6],not readily soluble
same,proliferation,murine melanoma,Treatment resulted in reduction of
same,tumor volume,murine melanoma; p < 0.01,Treatment resulted in reduction of
same,cellular lysosomal disruption,[7],major disruption
same,reduction in tumor incident,[8]; [11],18%
same,reduction in tumor volume,[8]; [11],63%
same,reduction in tumor incident,[8]; [12],23%
same,reduction in tumor volume,[8]; [12],81%
same,less tumor incident,"[8]; ip, 8 injections at 20 mg/kg",reduction in tumor volume & 50%
same,reduction in tumor volume,"[8]; ip, 8 injections at 20 mg/kg",ip treatments resulted in 84%
same,reduction in tumor volume,colon cancer xenografts,75% reduction in tumor volume
same,fate after oral ingestion,[9],convert to tocopherol
same,expression of PSA (prostate specific antigen),[10],strongly suppresses
same,expression of the androgen receptors,[10],inhibits
